Reference: US9062037B2, “Tazarotene derivatives” (Stiefel Laboratories, Inc., priority 2009, dated 2015)
Where two headings read alike, the source gives them in different places.

Columns and labels:
[1] = for k constant: HLM
Procedure: Hepatic microsomal reactions were carried out in microcentrifuge tubes in the following manner. Human liver microsomes (0.5 or 1.0 mg/ml protein), Test Article (1 or 10 μM), paraoxon (0, 10 or 100 μM), NADPH regenerating system (10 mM glucose-6-phosphate, 1 unit/ml glucose-6-phosphate dehydrogenase, 1 mM NADP^+), magnesium chloride (5 mM) in 0.1 M potassium phosphate buffer, pH 7.4 were incubated at 37° C. in a shaking water bath. Reactions were initiated with the addition of substrate with the exception of the zero-time incubations. The total reaction volume was 0.2 ml. The reactions were incubated for 15, 30, 45 or 60 minutes, terminated with 0.2 ml ice-cold acetonitrile and then placed on ice. For zero-time incubations, ice cold acetonitrile was added to the mixture containing microsomes, along with NADPH regenerating system, magnesium chloride in phosphate buffer and the Test Article. Each time point was carried out in triplicate.
Disappearance of Test Article and formation of metabolites following in vitro metabolism were determined by LC-MS/MS using multiple reaction monitoring. LightSight® software (Applied Biosystems, Foster City, Calif.) was used to generate the mass spectrometry methods and carry out the data mining.
Control incubations were carried out with the identical incubation procedures as described above with the following exceptions. In negative control reactions, microsomes were not included. […] Duplicate reactions with an initial concentration of 10 μM were incubated for 0 or 30 minutes. Microsomal metabolic stability of 7-ethoxycoumarin was determined by LC-MS/MS.

SkinEthic RHE cultures = assay: IL-1α and IL-8 activity assay in SkinEthic RHE cultures; assay type: cell-based, human; conditions: 6 μl test article, 72 hours
Procedure: SkinEthic RHE cultures were transferred into 6-well plates containing 1.0 mL/well growth media. The cultures were equilibrated at 37° C. and the media was changed daily. The cultures were subsequently placed in 60 mm petri dishes containing 3.5 mL growth media. 6 μl aliquots of the Test Articles shown in Table 3 were applied to duplicate cultures. The cultures were incubated at 37° C. for 72 hours. At the end of the incubation period, the growth media was collected and stored at −20° C. The tissues were cut in half and one half was placed in 10% NBF for histology, while the other half was placed in RNAlater™ solution (Ambion). The following analyses were performed: a) IL-1α and IL-8 activity assay; b) Hand E staining; c) Immunohistochemistry for K10, K19 and filaggrin; and d) qRT-PCR to quantitate K10, K19 and filaggrin expression.

[2] = HPLC analysis of mixtures of DUAC gel and TAZORAC cream (degradation of tazarotene in the presence of benzoyl peroxide); assay type: physicochemical; conditions: fresh samples
Procedure: DUAC® gel (1% clindamycin and 5% benzoyl peroxide marketed by Stiefel Laboratories, Inc.) and TAZORAC® cream (0.1% tazarotene marketed by Allergan, Inc.) have been successfully used to treat facial acne. However, these topical treatments are not approved for concomitant use. To study whether tazarotene is susceptible to oxidative decomposition by benzoyl peroxide, an in vitro laboratory study was conducted wherein a mixture of DUAC gel and TAZORAC cream was prepared.
Samples were prepared by taking equal portions of DUAC gel and TAZORAC cream and mixing them thoroughly at room temperature with a spatula in a suitable container to form a uniform mixture. The initial samples were analyzed immediately by HPLC. The other samples were placed into an oven at 35° C. and removed for analysis after one, two, four, six and eight hours. An allowance was made for product evaporation over the course of the study.

[3] = Stability in rat plasma at room temperature; assay type: in vitro ADME
Procedure: (§1) Tazarotene, tazarotene sulfoxide and tazarotene benzoate were incubated at room temperature with human and rat plasma. The incubation was carried out in duplicate and samples were taken at specific time points for stability analyses (i) rat samples (0 hour, 2 hours and 4 hours) and (ii) human samples (0 hour, 2 hours, 4 hours and 8 hours). Samples were analyzed by LC-MS/MS.

[4] = In vitro application of DUAC gel/TAZORAC cream mixture to split-thickness human skin; tazarotene and degradants quantified by LC/MS/MS; assay type: in vitro ADME; conditions: for detected in the receiving medium (passing through the skin): DUAC/TAZORAC mixture applied to split-thickness human skin
Procedure: An in vitro study was conducted to assess the formation of tazarotene degradants following the application of a mixture of DUAC gel and TAZORAC cream to human skin.
Equal portions of DUAC gel and TAZORAC cream were dispensed into a glass vial and mixed for approximately three minutes with a metal spatula to ensure a homogenous mixture. Samples of European DUAC gel and US DUAC gel were used in separate experiments. […] The test mixtures were then applied to the surface of split-thickness skin (˜0.25 mm) at a dose of 15.6 mg/cm^2 and spread evenly using a positive displacement pipette.
After 2 and 6 hours, the skin samples were washed, tape stripped twice, and then the epidermis was peeled from the dermis using a heat block. The skin samples were then extracted with acetonitrile overnight at 4° C. The distribution of tazarotene and its degradants within the epidermis, dermis and surface wash were quantified by LC/MS/MS with a 50 pg/mL LOQ. The experiments were performed under yellow light conditions. For the purposes of comparison, mixtures of DUAC gel and TAZORAC cream were also prepared and retained for stability testing at 0, 2 and 6 hour time points.

[5] = Stability in human plasma at room temperature; assay type: in vitro ADME
Procedure: as §1

[6] = 1 μM initial concentration, Complete (with NADPH), 0 min
[7] = 1 μM initial concentration, Complete (with NADPH), 15 min
[8] = 1 μM initial concentration, Complete (with NADPH), 30 min
[9] = 1 μM initial concentration, Complete (with NADPH), 45 min
[10] = 1 μM initial concentration, Complete (with NADPH), 60 min
[11] = 1 μM initial concentration, Without NADPH, 0 min
[12] = 1 μM initial concentration, Without NADPH, 15 min
[13] = 1 μM initial concentration, Without NADPH, 30 min
[14] = 1 μM initial concentration, Without NADPH, 45 min
[15] = 1 μM initial concentration, Without NADPH, 60 min
[16] = 10 μM initial concentration, Complete (with NADPH), 0 min
[17] = 10 μM initial concentration, Complete (with NADPH), 15 min
[18] = 10 μM initial concentration, Complete (with NADPH), 30 min
[19] = 10 μM initial concentration, Complete (with NADPH), 45 min
[20] = 10 μM initial concentration, Complete (with NADPH), 60 min
[21] = 10 μM initial concentration, Without NADPH, 0 min
[22] = 10 μM initial concentration, Without NADPH, 15 min
[23] = 10 μM initial concentration, Without NADPH, 30 min
[24] = 10 μM initial concentration, Without NADPH, 45 min
[25] = 10 μM initial concentration, Without NADPH, 60 min

Compound | Test Article remaining, percent of initial concentration [1, 6] [%] | Test Article remaining, percent of initial concentration [1, 7] [%] | Test Article remaining, percent of initial concentration [1, 8] [%] | Test Article remaining, percent of initial concentration [1, 9] [%] | Test Article remaining, percent of initial concentration [1, 10] [%] | Test Article remaining, percent of initial concentration [1, 11] [%] | Test Article remaining, percent of initial concentration [1, 12] [%] | Test Article remaining, percent of initial concentration [1, 13] [%] | Test Article remaining, percent of initial concentration [1, 14] [%] | Test Article remaining, percent of initial concentration [1, 15] [%] | Test Article remaining, percent of initial concentration [1, 16] [%] | Test Article remaining, percent of initial concentration [1, 17] [%] | Test Article remaining, percent of initial concentration [1, 18] [%] | Test Article remaining, percent of initial concentration [1, 19] [%] | Test Article remaining, percent of initial concentration [1, 20] [%] | Test Article remaining, percent of initial concentration [1, 21] [%] | Test Article remaining, percent of initial concentration [1, 22] [%] | Test Article remaining, percent of initial concentration [1, 23] [%] | Test Article remaining, percent of initial concentration [1, 24] [%] | Test Article remaining, percent of initial concentration [1, 25] [%] | further results
CCOC(=O)c1ccc(C#Cc2ccc3c(c2)C(C)(C)CCS3)nc1 [Tazarotene, ethyl 6-[2-(4,4-dimethylthiochroman-6-yl)-ethynyl nicotinate] | 100 | 21.1 | 4.91 | 1.80 | 0.70 | 100 | 22.0 | 4.86 | 1.43 | 0.65 | 100 | 24.1 | 6.55 | 2.18 | 0.89 | 100 | 21.9 | 4.64 | 1.48 | 0.55 | k constant ([1]; 1 μM, Complete): −0.0880; k constant ([1]; 1 μM, Without NADPH): −0.0899; k constant ([1]; 10 μM, Complete): −0.0827; k constant ([1]; 10 μM, Without NADPH): −0.0914; IL-1α activity compared to untreated and vehicle controls (SkinEthic RHE cultures): only slightly increased; tazarotene lost ([2]; mixture of DUAC gel and TAZORAC cream, after four hours): approximately 22%; concentration in rat plasma ([3]; 0 hour): 0.0164 µg/mL; concentration in rat plasma ([3]; 2 hours): <LOD; concentration in rat plasma ([3]; 4 hours): <LOD; detected in the receiving medium (passing through the skin) [4]: could not be detected; concentration in human plasma ([5]; 0 hour): 0.0171 µg/mL; concentration in human plasma ([5]; 2 hours): 0.0171 µg/mL; concentration in human plasma ([5]; 4 hours): 0.0166 µg/mL; concentration in human plasma ([5]; 8 hours): 0.0175 µg/mL
CCOC(=O)c1ccc(C#Cc2ccc3c(c2)C(C)(C)CC(OC(=O)c2ccccc2)S3)nc1 (stereo not shown) [Compound 4, 6-(2-(2-benzoyloxy-4,4-dimethylthiochroman-6-yl)ethynyl)nicotinic acid, ethyl ester] | 100 | 20.3 | 4.45 | 1.47 | 0.73 | 100 | 17.3 | 2.97 | 1.07 | 0.53 | 100 | 99.3 | 73.4 | 63.2 | 55.2 | 100 | 87.0 | 64.0 | 51.0 | 41.0 | k constant ([1]; 1 μM, Complete): −0.0893; k constant ([1]; 1 μM, Without NADPH): −0.0964; k constant ([1]; 10 μM, Complete): −0.0097; k constant ([1]; 10 μM, Without NADPH): −0.0146; IL-1α activity compared to untreated and vehicle controls (SkinEthic RHE cultures): only slightly increased; % Label Tazarotene Benzoate ([2]; 35° C., 4 hours): ~6.3 % Label; concentration in rat plasma ([3]; 0 hour): 0.0598 µg/mL; concentration in rat plasma ([3]; 2 hours): 0.015 µg/mL; concentration in rat plasma ([3]; 4 hours): 0.00229 µg/mL; detectable in epidermis and dermis samples ([4]; 2 and 6 hours post-application, all samples including the placebo): detectable in all samples; detected in the receiving medium (passing through the skin) [4]: could not be detected; quantity in stability samples at the 6 hour time point relative to the 2 hour time point ([4]; mixture of DUAC gel and TAZORAC cream retained for stability testing): significant increase; concentration in human plasma ([5]; 0 hour): 0.052 µg/mL; concentration in human plasma ([5]; 2 hours): 0.052 µg/mL; concentration in human plasma ([5]; 4 hours): 0.05 µg/mL; concentration in human plasma ([5]; 8 hours): 0.0458 µg/mL
